Patent US20170035706A1, “DETRUSOR HYPERACTIVITY WITH IMPAIRED CONTRACTILITY AMELIORATING AGENT” (TAIHO PHARMACEUTICAL CO., LTD., priority 2015, published 2017)
Where “and” joins values, the source holds several entries; their conditions need not be identical. Equal values may be shown once.

Tested on: rat dysuria model that presents DHIC
Assay: Cystometry and nomogram analysis in rat dysuria model that presents DHIC (partial ligation of urethra)
Format: in vivo
Protocol: The models were produced by partial ligation ((1)1.57 mm) of urethra in rats (9 weeks, female, Sprague-Dawley). Six weeks after preparation of the model, the rats were released the ligation. The next day, the intravesical pressure and the voided volume were measured under awake condition. And the detrusor contractility during voiding phase was evaluated by nomogram analysis using Qmax and Pdet. Additionally, the detrusor overactivity, as index of overactive bladder, and the increase of residual urine volume, as index of underactive bladder, were evaluated.
The dysuria models in this example were prepared in the same manner as in Test Example 1. The test drugs (vehicle: 6% Gelucire, Compound 1 of the present invention 10 mg/kg) were orally administered to each group after two weeks from the preparation of the models twice a day for four weeks. On the day of the final administration, the rats were released the ligation of urethra. The next day, the intravesical pressure and the voided volume were measured using cystometry under conscious condition. The detrusor overactivity, as an index of overactive bladder, and the increase of residual urine volume, as an index of underactive bladder, were evaluated. Additionally, the detrusor contractility during voiding phase was evaluated by nomogram analysis using Qmax and Pdet.
In the same manner as Test Example 1, the rats were released the ligation of urethra at six weeks after the preparation of the model. The next day, the intravesical pressure and the voided volume were measured using cystometry under conscious condition. The detrusor overactivity, as an index of overactive bladder, and the increase of residual urine volume, as an index of underactive bladder, were evaluated. Additionally, the detrusor contractility during voiding phase was evaluated by nomogram analysis using Qmax and Pdet. Tamsulosin (3 μg/kg) was administered intravenously to the dysuria rat at the evaluation (six weeks after preparation of the model).

Row | SMILES | Detrusor contractility during voiding phase: distance from the origin in nomogram analysis (Qmax, Pdet) (10 mg/kg orally twice a day for four weeks, control 4.24±0.53, sham 24.75±3.14) | Residual urine volume (female Sprague-Dawley rats, 10 mg/kg orally twice a day for four weeks, conscious cystometry, control 0.57 ± 0.06, sham 0.10 ± 0.03, 10 mg/kg) | Detrusor overactivity (female Sprague-Dawley rats, 10 mg/kg orally twice a day for four weeks, conscious cystometry, control 1.73 ± 0.10, sham 0.19 ± 0.09, 10 mg/kg) | Detrusor contractility in nomogram analysis (3 μg/kg intravenously at the evaluation, vs control (FIG. 2)) | Detrusor overactivity (female Sprague-Dawley rats, 3 μg/kg intravenously at the evaluation, conscious cystometry, control 1.73 ± 0.10)
1 | CC1=C(CCCCCCCCCCCCCCCO)C(C)(C)CCC1=O [Compound 1 of the present invention, 3-(15-hydroxypentadecyl)-2,4,4-trimethyl-2-cyclohexene-1-one] | 10.5±2.3 | 0.28 ± 0.13 mL | 0.63±0.14 times/min and 0.63 ± 0.10 times/min |  | 
2 | CCOc1ccccc1OCCN[C@H](C)Cc1ccc(OC)c(S(N)(=O)=O)c1 [Tamsulosin, reference compound] |  |  |  | no effect | 0.68±0.33 times/min
